{"source": "ChEMBL document CHEMBL4808245", "about": "“Cytoprotective agent troxipide-cyanine dye conjugate with cytotoxic and antiproliferative activity in patient-derived glioblastoma cell lines” (Bioorg Med Chem Lett, 2021)", "key": {"[1]": {"system": "U-87 MG", "test": "Synergistic cytotoxicity against human U-87MG cells assessed as combination index at 800 nM measured after 96 hrs by Hoechst staining based analysis", "type": "functional, U-87MG ATCC"}, "[2]": {"system": "GBM", "test": "Synergistic cytotoxicity against patient derived human GBM cells assessed as combination index at 5 nM measured after 96 hrs in presence of TMZ by Hoechst staining based analysis", "type": "functional"}, "[3]": {"system": "GBM", "test": "Synergistic cytotoxicity against patient derived human GBM cells assessed as combination index at 25 nM measured after 96 hrs in presence of TMZ by Hoechst staining based analysis", "type": "functional"}, "[4]": {"test": "Cytotoxicity against primary brain pericytes (unknown origin)", "type": "cell-based"}, "[5]": {"system": "U-87 MG", "test": "Synergistic cytotoxicity against human U-87MG cells assessed as combination index at 4000 nM measured after 96 hrs by Hoechst staining based analysis", "type": "functional, U-87MG ATCC"}, "[6]": {"system": "KNS-42", "test": "Cytotoxicity against human KNS-42 cells assessed as reduction in total cell count measured after 96 hrs by Hoechst staining analysis", "type": "functional, cell-based", "settings": "KNS-42, 96 h"}, "[7]": {"system": "GBM", "test": "Synergistic cytotoxicity against patient derived human GBM cells assessed as combination index at 100000 nM measured after 96 hrs in presence of TMZ by Hoechst staining based analysis", "type": "functional"}, "[8]": {"system": "GBM", "test": "Cytotoxicity against patient derived human GBM cells assessed as reduction in total cell count measured after 96 hrs in presence of TMZ by Hoechst staining analysis", "type": "functional, cell-based"}, "[9]": {"system": "U-87 MG", "test": "Cytotoxicity against human U-87MG cells assessed as reduction in total cell count measured after 96 hrs in presence of TMZ by Hoechst staining analysis", "type": "functional, cell-based, U-87MG ATCC"}, "[10]": {"test": "Selectivity ratio of EC50 for cytotoxicity against primary brain pericytes (unknown origin) to EC50 for cytotoxicity against patient derived human GBM cells"}, "[11]": {"system": "U-87 MG", "test": "Antagonistic cytotoxicity against human U-87MG cells assessed as combination index at 25 nM measured after 96 hrs in presence of TMZ by Hoechst staining based analysis", "type": "functional, U-87MG ATCC"}, "[12]": {"system": "KNS-42", "test": "Antagonistic cytotoxicity against human KNS-42 cells assessed as combination index at 1 nM measured after 96 hrs in presence of TMZ by Hoechst staining based analysis", "type": "functional"}, "[13]": {"system": "U-87 MG", "test": "Synergistic cytotoxicity against human U-87MG cells assessed as combination index at 125 nM measured after 96 hrs by Hoechst staining based analysis", "type": "functional, U-87MG ATCC"}, "[14]": {"system": "KNS-42", "test": "Antiproliferative activity against human KNS-42 cells assessed as reduction in cell proliferation measured after 48 hrs in presence of TMZ by EdU-incorporation assay", "type": "functional, cell-based", "settings": "KNS-42, 48 h"}, "[15]": {"system": "U-87 MG", "test": "Cytotoxicity against human U-87MG cells assessed as reduction in total cell count measured after 96 hrs by Hoechst staining analysis", "type": "functional, cell-based, U-87MG ATCC"}, "[16]": {"system": "U-87 MG", "test": "Synergistic cytotoxicity against human U-87MG cells assessed as combination index at 20000 nM measured after 96 hrs by Hoechst staining based analysis", "type": "functional, U-87MG ATCC"}, "[17]": {"system": "KNS-42", "test": "Cytotoxicity against human KNS-42 cells assessed as reduction in total cell count measured after 96 hrs in presence of TMZ by Hoechst staining based analysis", "type": "functional", "settings": "KNS-42, 96 h"}, "[18]": {"system": "GBM", "test": "Synergistic cytotoxicity against patient derived human GBM cells assessed as combination index at 4000 nM measured after 96 hrs in presence of TMZ by Hoechst staining based analysis", "type": "functional"}, "[19]": {"system": "GBM", "test": "Synergistic cytotoxicity against patient derived human GBM cells assessed as combination index at 1 nM measured after 96 hrs in presence of TMZ by Hoechst staining based analysis", "type": "functional"}, "[20]": {"system": "GBM", "test": "Synergistic cytotoxicity against patient derived human GBM cells assessed as combination index at 0.04 nM measured after 96 hrs in presence of TMZ by Hoechst staining based analysis", "type": "functional"}, "[21]": {"system": "GBM", "test": "Synergistic cytotoxicity against patient derived human GBM cells assessed as combination index at 800 nM measured after 96 hrs in presence of TMZ by Hoechst staining based analysis", "type": "functional"}, "[22]": {"system": "U-87 MG", "test": "Synergistic cytotoxicity against human U-87MG cells assessed as combination index at 100000 nM measured after 96 hrs by Hoechst staining based analysis", "type": "functional, U-87MG ATCC"}, "[23]": {"system": "KNS-42", "test": "Synergistic cytotoxicity against human KNS-42 cells assessed as combination index at 0.2 nM measured after 96 hrs by Hoechst staining based analysis", "type": "functional"}, "[24]": {"system": "KNS-42", "test": "Synergistic cytotoxicity against human KNS-42 cells assessed as combination index at 20000 nM measured after 96 hrs by Hoechst staining based analysis", "type": "functional"}, "[25]": {"system": "KNS-42", "test": "Synergistic cytotoxicity against human KNS-42 cells assessed as combination index at 4000 nM measured after 96 hrs by Hoechst staining based analysis", "type": "functional"}, "[26]": {"system": "GBM", "test": "Induction of apoptosis in patient derived human GBM cells assessed as increase in cleaved caspase-3 positive cells at IC50", "type": "functional, cell-based"}, "[27]": {"system": "U-87 MG", "test": "Antiproliferative activity against human U-87MG cells assessed as reduction in cell proliferation measured after 48 hrs in presence of TMZ by EdU-incorporation assay", "type": "functional, cell-based, U-87MG ATCC"}, "[28]": {"system": "KNS-42", "test": "Synergistic cytotoxicity against human KNS-42 cells assessed as combination index at 5 nM measured after 96 hrs by Hoechst staining based analysis", "type": "functional"}, "[29]": {"system": "U-87 MG", "test": "Antiproliferative activity against human U-87MG cells assessed as reduction in cell proliferation measured after 48 hrs by EdU-incorporation assay", "type": "functional, cell-based, U-87MG ATCC"}, "[30]": {"system": "GBM", "test": "Antiproliferative activity against patient derived human GBM cells assessed as reduction in cell proliferation measured after 48 hrs by EdU-incorporation assay", "type": "functional, cell-based"}, "[31]": {"system": "U-87 MG", "test": "Antagonistic cytotoxicity against human U-87MG cells assessed as combination index at 1 nM measured after 96 hrs in presence of TMZ by Hoechst staining based analysis", "type": "functional, U-87MG ATCC"}, "[32]": {"system": "KNS-42", "test": "Antagonistic cytotoxicity against human KNS-42 cells assessed as combination index at 25 nM measured after 96 hrs in presence of TMZ by Hoechst staining based analysis", "type": "functional"}, "[33]": {"system": "U-87 MG", "test": "Synergistic cytotoxicity against human U-87MG cells assessed as combination index at 0.2 nM measured after 96 hrs by Hoechst staining based analysis", "type": "functional, U-87MG ATCC"}, "[34]": {"system": "KNS-42", "test": "Antiproliferative activity against human KNS-42 cells assessed as reduction in cell proliferation measured after 48 hrs by EdU-incorporation assay", "type": "functional, cell-based", "settings": "KNS-42, 48 h"}, "[35]": {"system": "KNS-42", "test": "Synergistic cytotoxicity against human KNS-42 cells assessed as combination index at 100000 nM measured after 96 hrs by Hoechst staining based analysis", "type": "functional"}, "[36]": {"system": "U-87 MG", "test": "Antagonistic cytotoxicity against human U-87MG cells assessed as combination index at 0.04 nM measured after 96 hrs in presence of TMZ by Hoechst staining based analysis", "type": "functional, U-87MG ATCC"}, "[37]": {"system": "KNS-42", "test": "Antagonistic cytotoxicity against human KNS-42 cells assessed as combination index at 0.04 nM measured after 96 hrs in presence of TMZ by Hoechst staining based analysis", "type": "functional"}, "[38]": {"system": "KNS-42", "test": "Synergistic cytotoxicity against human KNS-42 cells assessed as combination index at 800 nM measured after 96 hrs by Hoechst staining based analysis", "type": "functional"}, "[39]": {"system": "GBM", "test": "Synergistic cytotoxicity against patient derived human GBM cells assessed as combination index at 0.2 nM measured after 96 hrs in presence of TMZ by Hoechst staining based analysis", "type": "functional"}, "[40]": {"system": "GBM", "test": "Synergistic cytotoxicity against patient derived human GBM cells assessed as combination index at 20000 nM measured after 96 hrs in presence of TMZ by Hoechst staining based analysis", "type": "functional"}, "[41]": {"system": "GBM", "test": "Antiproliferative activity against patient derived human GBM cells assessed as reduction in cell proliferation measured after 48 hrs in presence of TMZ by EdU-incorporation assay", "type": "functional, cell-based"}, "[42]": {"system": "KNS-42", "test": "Synergistic cytotoxicity against human KNS-42 cells assessed as combination index at 125 nM measured after 96 hrs by Hoechst staining based analysis", "type": "functional"}, "[43]": {"system": "U-87 MG", "test": "Synergistic cytotoxicity against human U-87MG cells assessed as combination index at 5 nM measured after 96 hrs by Hoechst staining based analysis", "type": "functional, U-87MG ATCC"}, "[44]": {"system": "GBM", "test": "Synergistic cytotoxicity against patient derived human GBM cells assessed as combination index at 125 nM measured after 96 hrs in presence of TMZ by Hoechst staining based analysis", "type": "functional"}, "[45]": {"system": "GBM", "test": "Cytotoxicity against patient derived human GBM cells assessed as reduction in total cell count measured after 96 hrs by Hoechst staining analysis", "type": "functional, cell-based"}}, "note": "Activity calls are given as the source filed them. No cut-off for these calls is given here."}
{"compound": "COc1cc(C(=O)NC2CCCN(C(=O)CCCCCN3/C(=C/C=C4\\CCCC(/C=C/C5=[N+](CCCCCC(=O)N6CCCC(NC(=O)c7cc(OC)c(OC)c(OC)c7)C6)c6ccccc6C5(C)C)=C4Cl)C(C)(C)c4ccccc43)C2)cc(OC)c1OC.[Br-]", "note": "(stereo not given)", "values": [{"measurement": "CI", "setting": "[1]", "result": 0.067}, {"measurement": "CI", "setting": "[2]", "result": 0.551}, {"measurement": "CI", "setting": "[3]", "result": 0.506}, {"measurement": "EC50", "setting": "[4]", "result": 3.6, "unit": "µM"}, {"measurement": "CI", "setting": "[5]", "result": 0.116}, {"measurement": "EC50", "setting": "[6]", "result": 394, "unit": "nM"}, {"measurement": "CI", "setting": "[7]", "result": 0.248}, {"measurement": "EC50", "setting": "[8]", "result": 90, "unit": "nM"}, {"measurement": "EC50", "setting": "[9]", "result": 108, "unit": "nM"}, {"measurement": "Ratio EC50", "setting": "[10]", "result": 19}, {"measurement": "CI", "setting": "[11]", "result": 3.837}, {"measurement": "CI", "setting": "[12]", "result": 3.406}, {"measurement": "CI", "setting": "[13]", "result": 0.268}, {"measurement": "IC50", "setting": "[14]", "result": 194, "unit": "nM"}, {"measurement": "EC50", "setting": "[15]", "result": 394, "unit": "nM"}, {"measurement": "CI", "setting": "[16]", "result": 0.052}, {"measurement": "EC50", "setting": "[17]", "result": 108, "unit": "nM"}, {"measurement": "CI", "setting": "[18]", "result": 0.536}, {"measurement": "CI", "setting": "[19]", "result": 0.301}, {"measurement": "CI", "setting": "[20]", "result": 0.323}, {"measurement": "CI", "setting": "[21]", "result": 0.287}, {"measurement": "CI", "setting": "[22]", "result": 0.05}, {"measurement": "CI", "setting": "[23]", "result": 0.016}, {"measurement": "CI", "setting": "[24]", "result": 0.052}, {"measurement": "CI", "setting": "[25]", "result": 0.116}, {"measurement": "Activity", "setting": "[26]", "result": "Active"}, {"measurement": "IC50", "setting": "[27]", "result": 194, "unit": "nM"}, {"measurement": "CI", "setting": "[28]", "result": 0.134}, {"measurement": "IC50", "setting": "[29]", "result": 504, "unit": "nM"}, {"measurement": "IC50", "setting": "[30]", "result": 164, "unit": "nM"}, {"measurement": "CI", "setting": "[31]", "result": 3.406}, {"measurement": "CI", "setting": "[32]", "result": 3.837}, {"measurement": "CI", "setting": "[33]", "result": 0.016}, {"measurement": "IC50", "setting": "[34]", "result": 504, "unit": "nM"}, {"measurement": "CI", "setting": "[35]", "result": 0.05}, {"measurement": "CI", "setting": "[36]", "result": 5.672}, {"measurement": "CI", "setting": "[37]", "result": 5.672}, {"measurement": "CI", "setting": "[38]", "result": 0.067}, {"measurement": "CI", "setting": "[39]", "result": 0.025}, {"measurement": "CI", "setting": "[40]", "result": 0.526}, {"measurement": "IC50", "setting": "[41]", "result": 110, "unit": "nM"}, {"measurement": "CI", "setting": "[42]", "result": 0.268}, {"measurement": "CI", "setting": "[43]", "result": 0.134}, {"measurement": "CI", "setting": "[44]", "result": 0.571}, {"measurement": "EC50", "setting": "[45]", "result": 211, "unit": "nM"}]}
